# Assays:
# [1] = target: Acetylcholinesterase (Homo sapiens, UniProt P22303); experiment: DRUGMATRIX: Acetylcholinesterase enzyme inhibition (substrate: acetylthiocholine); format: cell-based, HEK293; settings: Not Active = under 50% inhibition at 10 µM
# [2] = target: Vascular endothelial growth factor receptor 1 (Homo sapiens, UniProt P17948); experiment: biochemical; format: cell-based, HUVEC; settings: huvec; note: in other assays of this panel Not Active means under 50% inhibition at 10 µM
# [3] = target: T1, Endothelin-1 receptor (Homo sapiens, UniProt P25101); format: cell membranes, Membrane; settings: cho-k1; note: in other assays of this panel Not Active means under 50% inhibition at 10 µM
# T1 sequence (P25101 whole entry): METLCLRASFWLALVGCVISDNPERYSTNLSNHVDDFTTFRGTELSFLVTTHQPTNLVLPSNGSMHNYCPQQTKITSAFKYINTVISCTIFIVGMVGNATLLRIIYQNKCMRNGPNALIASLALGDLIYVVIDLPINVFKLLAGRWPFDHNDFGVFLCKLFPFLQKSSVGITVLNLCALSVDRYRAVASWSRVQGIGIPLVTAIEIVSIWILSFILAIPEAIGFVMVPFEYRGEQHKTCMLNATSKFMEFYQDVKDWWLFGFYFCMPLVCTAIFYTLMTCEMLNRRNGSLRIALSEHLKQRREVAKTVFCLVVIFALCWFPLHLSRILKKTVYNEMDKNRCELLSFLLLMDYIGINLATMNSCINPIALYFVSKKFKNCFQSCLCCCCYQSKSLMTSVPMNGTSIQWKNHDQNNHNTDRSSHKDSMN
# [4] = DRUGMATRIX: Purinergic P2X radioligand binding (ligand: [3H] alpha, beta-Methylene-ATP); format: cell membranes, Oryctolagus cuniculus, New Zealand albino, Urinary bladder, Membrane; settings: Not Active = under 50% inhibition at 10 µM
# [5] = target: Receptor tyrosine-protein kinase erbB-2 (Homo sapiens, UniProt P04626); experiment: biochemical; format: cell-based, Insect cells;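 note: inhibition of HER2 kinase enzyme activity, measured with Poly(Glu:Tyr) as the phosphorylation substrate; in other assays of this panel Not Active means under 50% inhibition at 10 µM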
# [6] = DRUGMATRIX: Tumor Necrosis Factor (TNF), Non-Selective radioligand binding (ligand: [125I] TNF-alpha); format: cell membranes, Membrane; settings: u-937; Not Active = under 50% inhibition at 10 µM
# [7] = target: T2, C-X-C chemokine receptor type 2 (Homo sapiens, UniProt P25025); format: cell membranes, Membrane; settings: cho-k1; note: in other assays of this panel Not Active means under 50% inhibition at 10 µM
# T2 sequence (P25025 whole entry): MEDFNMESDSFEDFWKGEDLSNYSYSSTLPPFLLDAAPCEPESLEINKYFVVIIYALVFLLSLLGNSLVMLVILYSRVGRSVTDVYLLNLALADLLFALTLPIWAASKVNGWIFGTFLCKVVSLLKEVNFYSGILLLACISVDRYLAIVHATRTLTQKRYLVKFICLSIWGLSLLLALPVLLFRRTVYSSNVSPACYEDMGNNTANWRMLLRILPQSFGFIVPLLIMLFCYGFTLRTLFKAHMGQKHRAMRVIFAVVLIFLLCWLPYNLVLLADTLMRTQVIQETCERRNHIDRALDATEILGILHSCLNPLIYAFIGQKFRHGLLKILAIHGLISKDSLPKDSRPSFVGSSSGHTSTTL
# [8] = target: Carbonic anhydrase 2 (Homo sapiens, UniProt P00918); experiment: DRUGMATRIX: Carbonic Anhydrase II enzyme inhibition (substrate: 4-Nitrophenyl acetate (4-NPA)); format: tissue-based; settings: erythrocyte; Not Active = under 50% inhibition at 10 µM
# [9] = target: Cytochrome P450 2E1 (Homo sapiens, UniProt P05181); settings: bti-tn-5b1-4; note: in other assays of this panel Not Active means under 50% inhibition at 10 µM
# Chain of Cytochrome P450 2E1 (P05181 whole entry): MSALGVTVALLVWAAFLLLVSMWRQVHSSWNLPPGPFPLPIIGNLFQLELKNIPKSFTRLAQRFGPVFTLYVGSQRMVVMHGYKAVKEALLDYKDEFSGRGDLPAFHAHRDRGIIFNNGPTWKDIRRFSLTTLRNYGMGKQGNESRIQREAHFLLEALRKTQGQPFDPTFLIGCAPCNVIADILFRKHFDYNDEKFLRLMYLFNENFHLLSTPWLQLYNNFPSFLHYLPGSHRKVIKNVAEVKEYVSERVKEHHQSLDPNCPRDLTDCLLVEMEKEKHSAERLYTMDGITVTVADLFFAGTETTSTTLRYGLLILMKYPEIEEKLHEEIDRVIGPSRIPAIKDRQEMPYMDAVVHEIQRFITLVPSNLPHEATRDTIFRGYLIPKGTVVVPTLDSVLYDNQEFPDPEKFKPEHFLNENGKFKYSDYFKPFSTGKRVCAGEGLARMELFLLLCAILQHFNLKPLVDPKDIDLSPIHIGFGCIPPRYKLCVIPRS
# Chain of Receptor tyrosine-protein kinase erbB-2 (P04626 whole entry): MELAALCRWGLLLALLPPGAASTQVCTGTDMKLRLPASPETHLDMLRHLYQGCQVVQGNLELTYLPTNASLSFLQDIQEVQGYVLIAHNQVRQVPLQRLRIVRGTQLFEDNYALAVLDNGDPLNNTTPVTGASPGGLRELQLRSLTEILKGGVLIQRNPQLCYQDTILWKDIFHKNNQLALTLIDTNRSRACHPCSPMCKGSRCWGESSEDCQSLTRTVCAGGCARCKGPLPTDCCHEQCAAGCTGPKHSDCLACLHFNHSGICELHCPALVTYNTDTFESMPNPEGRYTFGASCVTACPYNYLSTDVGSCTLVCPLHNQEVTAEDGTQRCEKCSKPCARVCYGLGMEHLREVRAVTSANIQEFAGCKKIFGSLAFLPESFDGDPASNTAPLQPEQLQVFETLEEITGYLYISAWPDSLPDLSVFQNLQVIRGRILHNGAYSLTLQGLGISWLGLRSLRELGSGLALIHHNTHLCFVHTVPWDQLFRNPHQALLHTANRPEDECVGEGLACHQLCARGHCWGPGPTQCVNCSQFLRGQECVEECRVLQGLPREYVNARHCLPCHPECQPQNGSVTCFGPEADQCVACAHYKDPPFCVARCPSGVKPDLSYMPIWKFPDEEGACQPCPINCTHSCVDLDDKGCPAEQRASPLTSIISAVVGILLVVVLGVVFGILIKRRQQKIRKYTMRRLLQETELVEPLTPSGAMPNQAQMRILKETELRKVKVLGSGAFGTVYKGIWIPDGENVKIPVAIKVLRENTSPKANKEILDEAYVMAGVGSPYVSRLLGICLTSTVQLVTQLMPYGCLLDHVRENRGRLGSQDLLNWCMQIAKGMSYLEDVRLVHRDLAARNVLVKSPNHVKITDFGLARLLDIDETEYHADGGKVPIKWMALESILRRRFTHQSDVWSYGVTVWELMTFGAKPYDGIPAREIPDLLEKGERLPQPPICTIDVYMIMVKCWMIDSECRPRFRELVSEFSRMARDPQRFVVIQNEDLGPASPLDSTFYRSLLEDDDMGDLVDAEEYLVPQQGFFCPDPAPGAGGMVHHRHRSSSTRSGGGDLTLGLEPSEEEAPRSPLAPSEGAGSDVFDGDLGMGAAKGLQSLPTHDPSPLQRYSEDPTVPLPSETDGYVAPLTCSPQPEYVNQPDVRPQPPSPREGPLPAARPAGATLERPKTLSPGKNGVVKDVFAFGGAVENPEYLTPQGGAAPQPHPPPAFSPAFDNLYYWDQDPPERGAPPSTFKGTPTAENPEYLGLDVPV
# Chain of Vascular endothelial growth factor receptor 1 (P17948 whole entry): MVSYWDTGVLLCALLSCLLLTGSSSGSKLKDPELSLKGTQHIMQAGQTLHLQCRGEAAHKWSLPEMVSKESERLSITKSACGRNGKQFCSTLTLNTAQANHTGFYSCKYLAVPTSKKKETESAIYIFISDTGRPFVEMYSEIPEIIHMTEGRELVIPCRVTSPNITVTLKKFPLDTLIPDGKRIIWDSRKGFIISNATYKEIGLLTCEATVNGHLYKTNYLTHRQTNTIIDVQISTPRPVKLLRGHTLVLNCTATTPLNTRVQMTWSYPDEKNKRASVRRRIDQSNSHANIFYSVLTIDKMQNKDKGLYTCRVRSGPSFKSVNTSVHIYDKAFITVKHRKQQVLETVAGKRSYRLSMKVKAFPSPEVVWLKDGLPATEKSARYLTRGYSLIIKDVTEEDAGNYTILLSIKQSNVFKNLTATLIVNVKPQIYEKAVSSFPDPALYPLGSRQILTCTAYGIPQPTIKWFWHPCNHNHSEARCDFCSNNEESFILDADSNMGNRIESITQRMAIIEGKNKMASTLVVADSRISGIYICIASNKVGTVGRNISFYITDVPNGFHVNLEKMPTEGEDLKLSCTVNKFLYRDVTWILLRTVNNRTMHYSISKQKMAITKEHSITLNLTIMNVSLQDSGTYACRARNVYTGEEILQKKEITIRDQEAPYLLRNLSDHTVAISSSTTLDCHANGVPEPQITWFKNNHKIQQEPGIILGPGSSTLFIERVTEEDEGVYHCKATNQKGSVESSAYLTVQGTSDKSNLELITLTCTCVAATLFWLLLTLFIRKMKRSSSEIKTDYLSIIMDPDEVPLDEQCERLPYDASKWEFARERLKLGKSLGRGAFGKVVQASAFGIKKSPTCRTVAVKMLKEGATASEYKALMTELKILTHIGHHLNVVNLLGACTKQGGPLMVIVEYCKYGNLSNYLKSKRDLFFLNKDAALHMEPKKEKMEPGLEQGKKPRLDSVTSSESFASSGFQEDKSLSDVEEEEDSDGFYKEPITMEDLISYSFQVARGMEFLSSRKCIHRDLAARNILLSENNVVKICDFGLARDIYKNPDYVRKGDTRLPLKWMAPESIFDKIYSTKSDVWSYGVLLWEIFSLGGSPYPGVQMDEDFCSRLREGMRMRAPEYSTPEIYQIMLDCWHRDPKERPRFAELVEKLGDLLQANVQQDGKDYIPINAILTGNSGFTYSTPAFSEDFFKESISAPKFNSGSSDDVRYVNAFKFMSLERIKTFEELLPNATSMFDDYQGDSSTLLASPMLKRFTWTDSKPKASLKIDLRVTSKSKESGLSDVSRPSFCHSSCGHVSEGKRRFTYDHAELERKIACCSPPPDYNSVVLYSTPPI
# Chain of Acetylcholinesterase (P22303 whole entry): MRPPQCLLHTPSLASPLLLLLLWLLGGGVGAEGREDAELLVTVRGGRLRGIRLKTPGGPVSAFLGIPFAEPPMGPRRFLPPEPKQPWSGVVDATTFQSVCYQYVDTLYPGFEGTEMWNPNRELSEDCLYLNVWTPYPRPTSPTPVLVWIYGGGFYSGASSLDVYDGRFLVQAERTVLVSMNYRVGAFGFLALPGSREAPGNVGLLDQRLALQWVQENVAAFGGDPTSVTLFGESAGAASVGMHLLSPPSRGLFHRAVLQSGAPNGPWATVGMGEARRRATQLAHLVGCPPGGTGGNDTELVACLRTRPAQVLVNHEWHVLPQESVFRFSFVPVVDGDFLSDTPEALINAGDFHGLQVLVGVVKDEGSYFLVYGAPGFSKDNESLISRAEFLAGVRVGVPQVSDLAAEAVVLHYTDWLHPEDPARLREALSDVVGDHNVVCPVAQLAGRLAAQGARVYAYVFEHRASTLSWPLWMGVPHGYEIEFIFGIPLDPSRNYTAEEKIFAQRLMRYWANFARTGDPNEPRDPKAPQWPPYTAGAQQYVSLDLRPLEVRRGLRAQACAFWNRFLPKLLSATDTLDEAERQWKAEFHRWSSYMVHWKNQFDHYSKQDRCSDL
smiles,measurement,setting,value
Cc1c(C)c2c(c(C)c1O)CCC(C)(CN1CCN(c3cc(N4CCCC4)nc(N4CCCC4)n3)CC1)O2 (stereo not given),IC50,[1]; hek293,Not Active
same,IC50,[2],Not Active
same,IC50,[3],Not Active
same,IC50,[4],Not Active
same,Ki,[4],Not Active
same,IC50,[5]; insect cells,Not Active
same,IC50,[6],Not Active
same,Ki,[6],Not Active
same,IC50,[7],Not Active
same,IC50,[8],Not Active
COc1ccc(CCN(C)CCCC(C#N)(c2ccc(OC)c(OC)c2)C(C)C)cc1OC (stereo not given),IC50,[1]; hek293,Not Active
same,IC50,[2],Not Active
same,IC50,[3],Not Active
same,IC50,[4],Not Active
same,Ki,[4],Not Active
same,IC50,[5]; insect cells,Not Active
same,IC50,[9],Not Active
same,Ki,[9],Not Active
same,IC50,[6],Not Active
same,Ki,[6],Not Active
same,IC50,[7],Not Active
same,IC50,[8],Not Active
CC(C)Cc1ccc([C@@H](C)C(=O)O)cc1 [(R)-IBUPROPHEN],IC50,[1]; hek293,Not Active
same,IC50,[2],Not Active
same,IC50,[3],Not Active
same,IC50,[4],Not Active
same,Ki,[4],Not Active
same,IC50,[5]; insect cells,Not Active
same,IC50,[9],Not Active
same,Ki,[9],Not Active
same,IC50,[6],Not Active
same,Ki,[6],Not Active
same,IC50,[7],Not Active
same,IC50,[8],Not Active
CN(C)CCOC(c1ccccc1)c1ccccc1 [DIPHENHYDRAMINE],IC50,[1]; hek293,Not Active
same,IC50,[2],Not Active
same,IC50,[3],Not Active
same,IC50,[5]; insect cells,Not Active
same,IC50,[7],Not Active
same,IC50,[8],Not Active
Clc1ccc(COC(Cn2ccnc2)c2ccc(Cl)cc2Cl)cc1 (stereo not given) [ECONAZOLE],IC50,[1]; read-out: IC50,13.7 µM
same,IC50,[2],Not Active
same,IC50,[3],Not Active
same,IC50,[5]; read-out: IC50,13.9 µM
same,IC50,[9],Not Active
same,Ki,[9],Not Active
same,IC50,[7],Not Active
same,IC50,[8],Not Active
CCN(CC)CCOc1ccc(/C(=C(/Cl)c2ccccc2)c2ccccc2)cc1 [ENCLOMIPHENE],IC50,[1]; hek293,Not Active
same,IC50,[2],Not Active
same,IC50,[3],Not Active
same,IC50,[5]; read-out: IC50,1.67 µM
same,IC50,[9],Not Active
same,Ki,[9],Not Active
same,IC50,[7],Not Active
same,IC50,[8],Not Active
Fc1ccc(C(c2ccc(F)cc2)N2CCN(C/C=C/c3ccccc3)CC2)cc1 [FLUNARIZINE],IC50,[1]; hek293,Not Active
same,IC50,[2],Not Active
same,IC50,[3],Not Active
same,IC50,[5]; insect cells,Not Active
same,IC50,[9],Not Active
same,Ki,[9],Not Active
same,IC50,[7],Not Active
same,IC50,[8],Not Active
CNCCC(Oc1ccc(C(F)(F)F)cc1)c1ccccc1 (stereo not given) [FLUOXETINE],IC50,[1]; hek293,Not Active
same,IC50,[2],Not Active
same,IC50,[3],Not Active
same,IC50,[5]; insect cells,Not Active
same,IC50,[9],Not Active
same,Ki,[9],Not Active
same,IC50,[7],Not Active
same,IC50,[8],Not Active
Cc1ccc(NC(=O)c2ccc(CN3CCN(C)CC3)cc2)cc1Nc1nccc(-c2cccnc2)n1 [IMATINIB],IC50,[1]; hek293,Not Active
same,IC50,[3],Not Active
same,IC50,[9],Not Active
same,Ki,[9],Not Active
same,IC50,[7],Not Active
CC(C)Oc1ccc2c(=O)c(-c3ccccc3)coc2c1 [IPRIFLAVONE],IC50,[1]; hek293,Not Active
same,IC50,[2],Not Active
same,IC50,[3],Not Active
same,IC50,[4],Not Active
same,Ki,[4],Not Active
same,IC50,[5]; insect cells,Not Active
same,IC50,[9],Not Active
same,Ki,[9],Not Active
same,IC50,[6],Not Active
same,Ki,[6],Not Active
same,IC50,[7],Not Active
same,IC50,[8],Not Active
CC(C)NCC(O)c1ccc(O)c(O)c1 (stereo not given) [ISOPROTERENOL],IC50,[1]; hek293,Not Active
same,IC50,[2],Not Active
same,IC50,[3],Not Active
same,IC50,[4],Not Active
same,Ki,[4],Not Active
same,IC50,[5]; insect cells,Not Active
same,IC50,[9],Not Active
same,Ki,[9],Not Active
same,IC50,[6],Not Active
same,Ki,[6],Not Active
same,IC50,[7],Not Active
same,IC50,[8],Not Active
CCN1CCC[C@H]1CNC(=O)c1cc(S(N)(=O)=O)ccc1OC [LEVOSULPIRIDE],IC50,[1]; hek293,Not Active
same,IC50,[2],Not Active
same,IC50,[3],Not Active
same,IC50,[4],Not Active
same,Ki,[4],Not Active
same,IC50,[5]; insect cells,Not Active
same,IC50,[9],Not Active
same,Ki,[9],Not Active
same,IC50,[6],Not Active
same,Ki,[6],Not Active
same,IC50,[7],Not Active
CN[C@H]1CC[C@@H](c2ccc(Cl)c(Cl)c2)c2ccccc21 [SERTRALINE],IC50,[1]; hek293,Not Active
same,IC50,[2],Not Active
same,IC50,[3],Not Active
same,IC50,[5]; insect cells,Not Active
same,IC50,[9],Not Active
same,Ki,[9],Not Active
same,IC50,[7],Not Active
same,IC50,[8],Not Active
